The nature of this series: Caco-2 cell monolayer uptake and apparent permeability. In kind it is in vitro ADME. As to conditions: human. Background: Caco-2 cells form a polarised layer with tight junctions and transporters.

Counter-ions that a name gives are not always drawn. Like-named read-outs stand apart in the source and are kept apart here.

Method: Caco-2 monolayer were grown in Dulbecco's modified Eagle's medium supplemented with 10% fetal bovine serum, 1% L-glutamine, 1% nonessential amino acids, and 5% antibiotic-antimycotic solution at 37° C. in humidified air, 5% CO2 atmosphere. The culture medium was replaced every 96 h. The uptake studies were conducted with monolayers (passages 73 to 79) in wells of 2 cm^2 which reach confluency following 4 days of incubation in culture. Prior to the experiments, the culture medium was replaced with transport medium and cell monolayers were subsequently equilibrated for 30 min at 37° C. before the uptake study. The transport medium was Hanks buffer composed of 136.89 mM NaCl, 5.36 mM KCl, 0.34 mM Na2HPO4, 0.44 mM KH2PO4, 0.41 mM MgSO4 7H2O, 19.45 mM glucose, 1.26 mM CaCl2, 0.49 mM MgCl2 6H2O, 4.17 mM NaHCO3, 10 mM HEPES, and the pH was adjusted to 7.4.
The powder (10 mg equivalent to 1 mg enalapril maleate) was weighted dispersed and fully dissolved in 1 ml Hanks buffer. 25 μl from this solution were placed in Caco-2 wells with 975 μl of Hanks buffer resulting in a final concentration of 25 μg/ml of enalapril maleate.
A 100 μl of parent CTS oil formulation was withdrawn and diluted with soybean oil USP to give 1 mg/ml of enalapril maleate.
A 25 μl of the diluted oil solution was placed into the transport medium to give a 25 μg/ml of enalapril maleate in each well (dilution 1:40).
All the uptake experiments were performed over 3 hours at 37° C. Following incubation the transport medium was collected in clean tubes stored at −80° C. up to the quantitative determination of the enalapril levels by HPLC (The HPLC method was provided by CTS). Regarding the cell monolayer in the wells, 1 ml of 0.2% SDS was added to each well to elicit lysis of the cell monolayer. The lysate were collected in a clean tube and enalapril was determined by CTS HPLC technique. […]

On to `CCOC(=O)[C@H](CCc1ccccc1)N[C@@H](C)C(=O)N1CCC[C@H]1C(=O)O` [ENL-solution, enalapril maleate], for which the Papp at 3 h, 25 μg/ml was determined as 25.1 ± 0.5 ×10⁻⁶ cm/s (Caco-2, pH 7.4, 25 μg/ml enalapril maleate, no intestinal juice, read-out: apparent permeability (Papp)); 25.2 ± 4.81 ×10⁻⁶ cm/s (Caco-2, pH 7.4, printed values are Papp multiplied by 10^6, 25 μg/ml enalapril maleate, 37° C., Hanks buffer pH 7.4, + 0.1% intestinal juice (IJ), read-out: Papp × 10^6 (cm/s) ± s.d); 25.1 ± 2.93 ×10⁻⁶ cm/s (Caco-2, pH 7.4, printed values are Papp multiplied by 10^6, 25 μg/ml enalapril maleate, 37° C., Hanks buffer pH 7.4, no intestinal juice, read-out: Papp × 10^6 (cm/s) ± s.d).

The values above are taken from patent publication US20130115294A1, “STABLE LIQUID OILY READY-TO-USE FORMULATIONS, PREPARATION THEREOF AND USE THEREOF” (CTS CHEMICAL INDUSTRIES LTD., priority 2010, published 2013).
